According to patent US20060063209A1, “Engineered antibody fragment that irreversibly binds an antigen” (THE REGENTS OF THE UNIVERSITY OF CALIFORNIA, priority 2004, published 2006):

What was measured:
avidin = avidin (Gallus gallus, UniProt P02701); conditions: cited from earlier work
G54C mutant of 2D12.5 = assay: Permanent binding to G54C, competitive 90Y-AABD attachment, SDS-PAGE; conditions: 37° C.
Description: FIG. 17 a) Scheme describing the permanent binding pair. b) Infinite binding is observed not only for ^90Y-AABD but also for ^111In-AABD, assayed by SDS-PAGE under denaturing conditions where only permanently bound complexes remain attached to the antibody.
FIG. 18 The G54C mutant was preincubated in triplicate with 10 μM AABD complexes of Y^3+, In^3+ or Cu^2+, a negative control N-(1-carbamoyl-2-(4-nitrophenyl)-ethyl)-acrylamide or N-(4-carboxymethylphenyl)-acrylamide, or just buffer, for 5 min, 20 min or 120 min at 37° C., pH 7.5. At the stated times ^90Y-AABD (1 μM) was added to each solution to compete for free G54C. Permanent binding was assayed by measuring band intensities after SDS-PAGE. a) Phosphorimage of gel. The fainter the bands, the greater the permanent binding by the unlabeled ligand. b) Crystal structures of Y-DOTA, In-DOTA-mono(p aminoanilide) (some atoms removed for clarity) and Cu-DOTA.
FIG. 19 a) Metal-AABD (10 μM) complexes were preincubated separately with aliquots of G54C for 5 min, followed by addition of 1 μM ^90Y-AABD, which competes for free G54C, and SDS-PAGE analysis. b) From quantitative phosphorimaging, the highest-affinity AABD complexes form permanent bonds with G54C with higher yields than more 3+weakly binding rare earth-AABD complexes whose ionic radii are slightly smaller (Lu Yb^3+) or larger (Ce^3+, La^3+) than ideal.
We were curious to see if an even weaker binder such as a copper chelate (KD˜10^−4 M for Cu-NBD) would bind irreversibly under ordinary conditions. We tested this by comparing the permanent binding of Y^3+-, In^3+-, and Cu^2+-AABD, using competitive ^90Y-AABD attachment as an indicator (FIG. 18). […] Weaker binding In-AABD blocks >50% of the sites after 5 min preincubation, and even more at later times. Very weakly binding Cu-AABD initially occupies only about 10% of the G54C sites under these conditions, but it has permanently attached to G54C in good yield after 2 hr, blocking>70% of the sites.

antibody 2D12.5 = assay: Competitive immunoassay (ELISA) of metal chelate binding; set-up: species or system mouse
Description: FIG. 9 Relative binding of metal-(S)NBD complexes to antibody 2D12.5. A representative set of competitive binding curves obtained from ELISA experiments. Distance between midpoints is related to difference between dissociation constants. Error bars (representing the standard error of the mean) are shown but are generally smaller than the data points.
FIG. 14 Binding of yttrium chelates with different stereochemistry to antibody 2D12.5, showing that the antibody binds a chelate with the side chain in the R configuration approximately one order of magnitude less well than the S configuration. […] Error bars are smaller than the data symbols. Data were generated by competitive ELISA.
A competitive immunoassay to measure the binding constants of various metal-(S)NBD complexes relative to the original Y^3+ complex (FIG. 9) was developed to assess the metal selectivity of antibody 2D12.5. Briefly, 2D12.5 was incubated at 37° C. in the presence of immobilized HSA-21T-Y-(S)BAD and a soluble metal-(S)NBD competitor (Y-(S)BAD was linked to human serum albumin via 2-iminothiolane). The metal-(S)NBD concentration was varied from μM to pM in order to determine the relative binding affinity of 2D12.5 for each metal chelate in comparison to Y-(S)NBD. […] Other antibodies that bind metal chelates do so with a strong preference for one or possibly two metals (Love, R. et al., Biochemistry 32, 10950-10959 (1993), and Khosraviani, M., et al., (2000) Bioconjugate Chem., 11, 267-277). For example, the (S)NBD chelate of group IIIB ion Sc(III) binds to the antibody with a much lower affinity (<1%) than the strongest binding rare earth complexes, perhaps because Sc(III) has a much smaller ionic radius (Meehan, P. R., et al., Coord. Chem. Rev., 181, 121145, and Shannon, R. D. (1976) Acta Crystallogr., Sect. A: Found. Crystallogr., A32, 751-767).

HLA-DR10 = assay: Gel shift assay of permanent attachment of sL1 mutants (western blot); assay type: binding; conditions: for cross-linking of linker-activated T97C to HLA-DR10: sL1 mutant T97C activated with electrophile, 19 h incubation, western blot
Description: FIG. 25 Gel shift assay of permanent attachment of sL1 to HLA-DR: western blot stained with anti-HLA-DR10β (antibody HL-40). The glycosylated β subunit of HLA-DR10 runs approximately 28-34 kDa, so the cross-linked sL1-HLA-DR10β should run at 57-63 kDa (bands in lanes 5 and 10). Lanes 2-6 are cysteine mutant F96C and lanes 7-11 are cysteine mutant T97C. Lanes 2 and 7 are sL1 mutant only; lanes 3 and 8 are sL1 mutant and HLA-DR10 target; lanes 4 and 9 are sL1 mutant and electrophile (no target); lanes 5 and 10 are the complete experiment: sL1 mutant, electrophile, and target; and lanes 6 and 11 are sL1 mutant with electrophile and recombinant human serum albumin as a negative control. Lnkr: nitrophenyl ester; Trgt: HLA-DR10.
Irreversible Binding Studies of sL1 and HLA-DR10 The general strategy for the development of an irreversibly binding Lym1 sFv (sL1) is outlined in FIG. 24. Lym-1 scFv (sL1) is genetically altered to incorporate a cysteine residue in various positions of one of the six CDRs. This free sulfhydryl is then activated with an alkylbromoacetate consisting of varied R-groups (see FIG. 34) which modify the reactivity of the covalent bond formation. The activated sL1 is then incubated with a crude mixture containing the target protein. The mixture is loaded on a SDS-PAGE gel and then investigated for the appearance of new, high molecular weight bands corresponding to the conjugation of the target protein and the sL1.
The general experimental protocol for the gel shift assays in the figures is as follows. An aliquot of concentrated P. pastoris expression media containing an sL1 mutant (8-10 μL, positive by anti-V5 stain for sL1 and dialyzed into 10 mM HEPES buffer pH 8.0), is incubated for 15 min with a chosen bromoacetate ester (e.g., nitrophenyl bromoacetate) at a concentration of 10 mM, to alkylate the Cys sidechain. […] Reducing SAB is added to each sample, followed by SDS-PAGE and western blotting.

[1] = Whole-body clearance of indium-111 labeled electrophilic benzyl-EDTA derivatives; assay type: in vivo; conditions: indium-111 labeled chelate, BALB/c mice; for apparent half-life, whole-body clearance: after tail-vein injection
Description: FIG. 4 Whole-body clearance of indium-^111I labeled electrophilic derivatives of benzyl-EDTA from BALB/c mice after tail-vein injection. Here the objective was to find an electrophilic chelate that clears from the animal quickly when not captured by an engineered CHA255.
As reactive ligands, a small set of chelates bearing electrophilic para substituents (FIG. 3) that could react with cysteine were prepared. To be most useful, the electrophilic ligands should be stable in biological media so that they not react prematurely with common biological nucleophiles such as the cysteine on glutathione or in albumin (Geigy Scientific Tables Vol 3, C. Lentner, ed., Ciba-Geigy Ltd., Basel, Switz (1984)). The whole-body clearance of the radiolabeled chelates from mice was studied (FIG. 4 and Chmura, A. J., et al., J. Controlled Release 78:249-258 (2002)) to identify the electrophilic chelates that are unreactive in plasma in vitro, and which also quantitatively clear from live animals.

Fab S95C = assay: Covalent attachment of 111In-chelates to engineered Fab S95C (SDS-PAGE); assay type: binding; conditions: physiological pH and temperature, raw culture medium with 10% fetal calf serum
Description: FIG. 5 Conjugation of electrophilic ^111In-benzyl-EDTA derivatives with engineered Fab S95C. Phosphorimage of 10-20% SDS-PAGE gel of samples of complete culture media incubated with ^111In-labeled (A) CABE, (B) CpABE, (C) AABE, and (D) ABE. The radiolabeled light chains migrate near 25 Kd.
To investigate whether either the S95C or the N96C Fab would bind irreversibly to its target, ^111In-labeled chelates bearing electrophilic groups were incubated at physiological pH and temperature with raw tissue culture medium from the cells expressing these recombinant proteins. The culture medium contained 10% fetal calf serum, representative of typical biological media.
The samples were analyzed by denaturing gel electrophoresis (SDS-PAGE). Separation under reducing and denaturing conditions on SDS-PAGE separates the light chain from the heavy chain of each Fab, functionally destroying the antibody-binding pocket. Chelates bound to the Fab but not covalently linked will dissociate because the antibody-binding pocket is no longer folded. […] However, a chelate that not only bound to a Fab but also covalently linked will be attached to the Fab light chain and migrate with it on SDS-PAGE.

HLADR = assay: Monovalent binding of Lym-1 single-chain antibody
Description: This is a combination of (1) the behavior characteristic of a weak binder, which should permeate a tumor, and (2) the behavior of an extremely strong binder, which should ultimately lock onto its targets throughout the tumor. This combination of good penetration and permanent binding is a unique and revolutionary aspect of this technology.

Sequence of avidin (P02701 25-152): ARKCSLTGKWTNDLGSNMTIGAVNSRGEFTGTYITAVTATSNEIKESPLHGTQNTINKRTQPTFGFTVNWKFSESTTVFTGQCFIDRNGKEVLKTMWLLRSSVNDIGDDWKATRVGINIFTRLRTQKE

Molecule: O=C(O)CCCC[C@@H]1SC[C@@H]2NC(=O)N[C@@H]21 [biotin]
- KA (avidin): ~4e+09 M⁻¹

Molecule: C=CC(=O)Nc1ccc(C[C@H]2CN(CC(=O)O)CCN(CC(=O)O)CCN(CC(=O)O)CCN2CC(=O)O)cc1 [In-AABD, (S)-2-(4-acrylamidobenzyl)-DOTA]
- G54C sites blocked from 90Y-AABD (G54C mutant of 2D12.5; 10 μM complex, preincubation 5 min, pH 7.5): > 50%
- permanent binding to G54C (G54C mutant of 2D12.5; pH 7.5, SDS-PAGE, listed as 111In-AABD): binds permanently

Molecule: O=C(O)CN1CCN(CC(=O)O)CCN(CC(=O)O)[C@@H](Cc2ccc([N+](=O)[O-])cc2)CN(CC(=O)O)CC1 [Y-(S)NBD, (S)-2-(4-nitrobenzyl)-DOTA]
- Kd (antibody 2D12.5; 37° C., competitive immunoassay): 10 nM

Molecule: O=C(O)CN1CCN(CC(=O)O)CCN(CC(=O)O)CCN(CC(=O)O)CC1 [Y-DOTA, 1,4,7,10-tetraazacyclododecane-N,N′,N″,N′″-tetraacetic acid]
- relative binding to 2D12.5 (antibody 2D12.5; competitive ELISA): lower than Y-(S)NBD but higher than Y-(R)NBD
- relative binding to 2D12.5 (antibody 2D12.5; competitive ELISA, listed as Yttrium-DOTA): approximately in the middle

Molecule: O=C(CBr)Oc1ccccc1 [phenylbromoacete]
- cross-linking of linker-activated T97C to HLA-DR10 (HLA-DR10): mild reactivity

Molecule: O=C(O)CN(CC(=O)O)CC(Cc1ccc(NC(=O)CBr)cc1)N(CC(=O)O)CC(=O)O (centres unmarked) [BABE, bromoacetamidobenzyl-EDTA]
- whole-body clearance [1]: remain in the animals
- apparent half-life, whole-body clearance [1]: 41 h

Molecule: O=C(O)CN(CC(=O)O)CC(Cc1ccc(NC(=O)CCl)cc1)N(CC(=O)O)CC(=O)O (centres unmarked) [CABE, chloroacetamidobenzyl-EDTA]
- whole-body clearance [1]: remain in the animals
- apparent half-life, whole-body clearance [1]: 9 h
- covalent attachment to Fab S95C light chain (Fab S95C): reacted equally well

Molecule: nitrophenylbromoacetate
- cross-linking of linker-activated T97C to HLA-DR10 (HLA-DR10): strong cross-linking

Molecule: O=C(O)CN1CCN(CC(=O)O)CCN(CC(=O)O)[C@@H](Cc2ccc([N+](=O)[O-])cc2)CN(CC(=O)O)CC1 [Gd-(S)NBD, (S)-2-(4-nitrobenzyl)-DOTA]
- relative binding to 2D12.5 (antibody 2D12.5; competitive ELISA): bind more tightly than the original Y^3+ complex

Molecule: (S)-1-p chloropropionamidobenzyl-EDTA [CpABE]
- covalent attachment to Fab S95C light chain (Fab S95C): not

Molecule: C=CC(=O)Nc1ccc(C[C@H]2CN(CC(=O)O)CCN(CC(=O)O)CCN(CC(=O)O)CCN2CC(=O)O)cc1 [Cu-AABD, (S)-2-(4-acrylamidobenzyl)-DOTA]
- G54C sites initially occupied (G54C mutant of 2D12.5; 10 μM complex, pH 7.5): about 10%
- G54C sites blocked from 90Y-AABD (G54C mutant of 2D12.5; 10 μM complex, after 2 hr, pH 7.5): > 70%

Molecule: O=C(O)CN1CCN(CC(=O)O)CCN(CC(=O)O)[C@@H](Cc2ccc([N+](=O)[O-])cc2)CN(CC(=O)O)CC1 [La-(S)NBD, (S)-2-(4-nitrobenzyl)-DOTA]
- ΔΔG relative to the Y-(S)NBD complex (antibody 2D12.5; competitive ELISA): 0.693 kcal/mol

B1: sL1: Lym-1 single-chain antibody, no cysteine mutation (protein)
scFv: RSQVQLKESGPGLVAPSQSLSITCTISGFSLTSYGVHWVRQPPGKGLEWLVVIWSDGSTTYNSALKSRLSISKDNSKSQVFLKMNSLQTDDTAIYYCASHYGSTLAFASWGHGTLVTVSAGGGGSGGGGSGGGGSDIQMTQSPASLSASVGETVTIICRASVNIYSYLAWYQQKQGKSPQLLVYNAKILAEGVPSRFSGSGSGTQFSLKINSLQPEDFGSYYCQHHYGTFTFGSGTKLEIKSRGPFEGKPIPNPLLGLDSTRTGHHHHHH
- permanent attachment (cross-linking) to HLA-DR10β (HLA-DR10; sL1 construct treated with nitrophenyl ester, 37° C., 4 hr, western blot with HL-40): no reactive band appeared
- monovalent affinity (HLADR): too weak to measure confidently, but probably in the micromolar range
